Source: patent US20070275953A1 (priority 2003, published 2007)
Read-outs that look alike come from different tables or passages of the source. Values belong to the compound of their own block, whether it stands above or below them.

Assays:
[1] = target: T1, HIV-1 reverse transcriptase (Human immunodeficiency virus type 1 group M subtype B, UniProt P04585); experiment: HIV-1 in vitro reverse transcriptase activity (fixed-time RNA dependent DNA polymerase assay); type: biochemical; settings: residual RT activity, compound at 10 μM; RT activity without compound set at 100%
T1 construct: fixed-time assay for HIV-1 reverse transcriptase RNA dependent DNA polymerase activity; RT was purchased from Calbiochem; purchased Calbiochem CAL382129-500
Description: For the in vitro inhibition studies of the HIV-1 reverse transcriptase activity, stock solutions of the compounds of the present invention were prepared in dimethyl sulfoxide at a final concentration of 10 mM and kept at room temperature. Nevirapine was purchased from Boehringer Ingelheim. Efavirenz was received from the NIH AIDS Research and Reference Reagent Program.
In vitro inhibition studies used a fixed-time assay for HIV-1 reverse transcriptase RNA dependent DNA polymerase activity. RT was purchased from Calbiochem (ref CAL382129-500). One unit of RT corresponds to the amount of enzyme which incorporates one nanomole of [^3H]TTP in 10 minutes at 37° C.
Assays were performed in a final volume of 50 μl. […] Reaction mixtures were incubated at 37° C. for 10 min. The incorporation rate was determined by a standard trichloroacetic acid precipitation procedure (adapted from Current protocols in molecular biology. Eds Wiley, MGH Harvard medical school) and liquid scintillation counting using a Wallac scintillation counter.
The in vitro activity of the compounds, at a final concentration of 10 μM, on the reverse transcriptase (RT) activity of HIV-1 is derivable from the relative (%) reduction in RT activity. Hereby, the RT activity in the absence of any of the compounds is set at 100%.

[2] = tested on: HIV-1 with WT (wild type) RT in P4 cells; experiment: Anti-HIV assay on P4 cell line, WT RT; type: cell-based
Description: (§1) For the antiviral and the cytotoxicity assays, the drugs were diluted in complete DMEM medium. In these experiments, drugs were diluted in triplicate wells in a 96-well plate in six, 5 fold serial dilutions.
(§2) Two days later, co-cultivation with SupT1 cells (a human T-cell lymphoma cell line) was initiated to facilitate rapid production of progeny virions. Production of virus was measured by using the Innotest HIV Antigen mAb p24 kit (Innogenetics). At the peak of production cultures were harvested and filtered. The virus stocks were stored at −80° C. until used.
Anti-HIV activity and cytotoxicity of the compounds were tested on a P4 cell line. […] The P4 cells were cultured in complete DMEM medium supplemented with 10% fetal bovine serum (FBS), 0.5% of Penicillin/Streptomycin and G418 at 0.5 mg/ml. Exponentially growing cells were trypsinized, centrifuged and split twice weekly at 5.10^4 cells/ml.
The P4 cells are HIV-infectible Hela-CD4 cells that carry the bacterial lacZ gene under the control of the HIV-1 long terminal repeat (LTR). In this cell line, transcription of the LacZ gene is driven by the HIV-1 LTR. […] In other words, in this system, the expression level of the β-galactosidase gene is proportional to the viral replication.
(§3) Briefly, in the anti-HIV assay 100 Ål of P4 cells were plated in 96-well plate at a concentration of 0.4 10^5 cells/ml and incubated at 37° C., 5% CO2. After 48 h, the medium was removed and 100 Ål of the different drugs dilutions were added to the cells. Four hours after the addition of the drugs all cells were infected with equal amount of cell-free virus, corresponding to 100 ng of HIV p24 antigen. After 48 h of incubation at 37° C., 5% CO2, β-galactosidase activity was measured using chlorophenol red-β-D-galactopyranoside assays.
Each assay was performed a minimum of three times. The 50% effective concentration (Ec50) was calculated from each dose response curve using the CurveExpert 1.3 software.

P4 cells = experiment: Cytotoxicity (CC50), MTT assay on P4 cells; type: cell-based; settings: 3 days
Description: as §1
(§4) The 50% cytotoxic concentration (CCso) was determined using a protocol adapted from Pauwels et al. (1988. J. Virol. Methods 20(4):309-21). Briefly, flat bottom 96-well plates were filled with 50 μl of complete medium containing 5.10^3 P4 cells. 2 hours later 50 μl of drug solution were added to the cells. Drugs (dissolved in DMEM, see above) were diluted in six, 5-fold serial dilutions from stock solutions in triplicate wells of a 96-well plate. Cells and compounds were incubated at 37° C. in growth medium for 3 days. Cell viability was determined by MTT assays using the Roche Cell Proliferation KIT. The absorbance (λ=570 nm) was measured on a Benchmark™ Microplate Reader (Biorad) and compared with 12 cell control replicates (no drug added). Each assay was performed at least three times for a total of at least nine replicate wells. This method detects both cytostatic and cytolytic effects of drugs.

[3] = Cytotoxicity (CC50), MTT assay on P4 cells; type: cell-based; settings: human
Description: as §1, §4

[4] = tested on: HIV-1 mutant Cys188RT in P4 cells; experiment: Anti-HIV assay on P4 cells, Cys188RT mutant; type: cell-based
Excerpt: (§5) In order to introduce mutation(s) at the level of the pol gene coding for the RT in the pNL4-3 plasmid containing the complete viral genome (Adachi et al., 1986. J. Virol., Vol. 59 p 284-291) we used the “Quick change mutagenesis kit” (Stratagene). The following mutations were separately introduced in pNL4-3: L100I, K103N, V108I, Y181C, Y188C, and the double mutations K103N/V108I. These mutations were chosen because of the resistance that they confer to existing NNRTI. The production procedure of the mutant viral stocks is identical to the one described above.
Anti-HIV activity and cytotoxicity of the compounds were tested on a P4 cell line. The P4 cell line (Clavel & Charneau, 1994. J. Virol., Vol. 68 p 1179-1185) was provided by Dr. François Clavel (Unité de recherche antivirale de l'hôpital Xavier Bichat Paris: Inserm). The P4 cells were cultured in complete DMEM medium supplemented with 10% fetal bovine serum (FBS), 0.5% of Penicillin/Streptomycin and G418 at 0.5 mg/ml. Exponentially growing cells were trypsinized, centrifuged and split twice weekly at 5.10^4 cells/ml.
The P4 cells are HIV-infectible Hela-CD4 cells that carry the bacterial lacZ gene under the control of the HIV-1 long terminal repeat (LTR). In this cell line, transcription of the LacZ gene is driven by the HIV-1 LTR. As such, the cytoplasmic accumulation of β-galactosidase is strictly dependent on the presence of the HIV transactivator Tat produced during the intracellular viral replication (Clavel & Charneau, 1994. J. Virol., Vol. 68, p. 1179-1185). In other words, in this system, the expression level of the β-galactosidase gene is proportional to the viral replication.
as §3
The absorbance was measured on a Benchmark™ Microplate Reader (Biorad) (λ=570 nm) and compared with 12 cell control replicates (no virus or drug added) and 12 virus control wells (no drug added). Each assay was performed a minimum of three times. The 50% effective concentration (Ec50) was calculated from each dose response curve using the CurveExpert 1.3 software. As Nevirapine activity corresponds to its published values (10-100 nM), the data are consistent with other measures of viral replication.

[5] = tested on: HIV-1 with WT (wild type) RT in TZM-bl cells; experiment: Anti-HIV assay on TZM-bl cell line, WT RT; type: cell-based
Description: as §2, with “Wurzburg Jurkat T cells (subclone JR) were transfected with 10 μg of the circularly permuted infectious molecular clone HIVNL4-3 (Adachi et al., 1986. J. Virol, 59 (2), p 284-291). Two” for “Two”
(§6) Anti-HIV activity and cytotoxicity of the compounds were tested on the TZM-b1 cell line. The TZM-b1 cell line (Wei et al. 2002. Antimicrob. Agents Chemother. Vol. 46, p 1896-1905) was received from the NIH AIDS Research and Reference Reagent Program. These cells were cultured in complete DMEM medium supplemented with 10% fetal bovine serum (FBS), and 1% Penicillin/Streptomycin. Exponentially growing cells were trypsinized, centrifuged and split twice weekly at 5 10^4 cells/ml.
(§7) The anti-HIV assay with TZM-b1 cells is essentially the same as described above with P4 cells. The main difference between the two cell lines is that the TZM-b1 cells express at their surface both the CD4 and CCR5 proteins, acting as receptor and co-receptor for HIV entry, respectively (Wei et al. 2002. Antimicrob. Agents Chemother. Vol. 46, p 1896-1905). This feature makes the cells very sensitive to infection by the virus. The TMZ-b1 cells were infected with equal amount of cell-free virus, corresponding to 10 ng of HIV p24 antigen. This amount is ten times lower than the amount used to infect the P4 cells.

[6] = tested on: HIV-1 mutant Cys188RT in TZM-bl cells; experiment: Anti-HIV assay on TZM-bl cells, Cys188RT mutant; type: cell-based; settings: TZM-bl, mutant Cys188RT; read-out: EC50 Cys188RT TZM-bl
Excerpt: as §5, §6, §7

[7] = tested on: HIV-1 mutant Cys181RT in TZM-bl cells; experiment: Anti-HIV assay on TZM-bl cells, Cys181RT mutant; type: cell-based; settings: TZM-bl, mutant Cys181RT; read-out: EC50 Cys181RT TZM-bl
Excerpt: as §5, §6, §7

[8] = tested on: HIV-1 mutant Asn103/Ile108RT in TZM-bl cells; experiment: Anti-HIV assay on TZM-bl cells, Asn103/Ile108RT double mutant; type: cell-based; settings: TZM-bl, double mutant Asn103/Ile108RT; read-out: EC50 Asn103/Ile108RT TZM-bl
Excerpt: as §5, §6, §7

[9] = P4 cell line, WT RT, read-out: EC50 WT
[10] = Table 8, effect of the R2 substituent, cell line not given, read-out: EC50 WT
[11] = Table 8, effect of the R2 substituent, cell line not given, read-out: EC50 Cys188RT
[12] = Human immunodeficiency virus 1, P4 cell line, WT RT, read-out: EC50 WT

SMILES: CCOC(=O)c1c(OC2CC(C)CC(C)C2)c(CC)c(C)[nH]c1=O (single isomer, unassigned) [Z37A]
Relative (%) RT activity in vitro (compound added at 10 μM) [1]: 7.6%
EC50 [2, 9]: 240 nM
CC50 (P4 cells): 63000 nM

SMILES: CCOC(=O)c1c(OC(=O)C=C(C)C)c(CC)c(C)[nH]c1=O [M18, ethyl 5-ethyl-6-methyl-4-[(3-methylbut-2-enoyl)oxy]-2-oxo-1,2-dihydropyridine-3-carboxylate]
Relative (%) RT activity in vitro (compound added at 10 μM) [1]: 70.8%
EC50 ([2]; Human immunodeficiency virus 1, read-out: EC50 WT): 5820 nM
SI (selectivity index = CC50/EC50) ([2]; P4 cell line, WT RT): >17
CC50 at 3 days [3]: > 100000 nM
melting point: 166 °C

SMILES: CCOC(=O)c1c(OC2CCCCC2Cl)c(CC)c(C)[nH]c1=O (centres unmarked) [Z12]
Relative (%) RT activity in vitro (compound added at 10 μM) [1]: 63.7%
EC50 [2, 9]: 3090 nM
CC50 (P4 cells): > 100000 nM

SMILES: CCOC(=O)c1c(OC2CCCCCC2)c(CC)c(C)[nH]c1=O [Z25]
Relative (%) RT activity in vitro (compound added at 10 μM) [1]: 34.6%
EC50 [2, 9]: 480 nM
EC50 [2, 10]: 480 nM
CC50 (P4 cells): 81000 nM
activity on Cys188 mutant strains compared with the cyclohexyl derivative [4]: more active on Cys188 mutant strains than the cyclohexyl derivative
EC50 [4, 11]: 3280 nM

SMILES: CCOC(=O)c1c(OC2CCCC(C)C2)c(CC)c(C)[nH]c1=O (centres unmarked) [Z30]
Relative (%) RT activity in vitro (compound added at 10 μM) [1]: 22.0%
EC50 [2, 9]: 520 nM
CC50 (P4 cells): > 100000 nM

SMILES: CCc1c(C)[nH]c(=O)c(CO)c1OC1CCCCCC1 [Z32, 4-(cycloheptyloxy)-3-(hydroxymethyl)-5-ethyl-6-methylpyridin-2(1H)-one]
Relative (%) RT activity in vitro (compound added at 10 μM) [1]: 44.0%
EC50 [2, 12]: 1160 nM
SI (selectivity index = CC50/EC50) ([2]; P4 cell line, WT RT): 47
CC50 at 3 days [3]: 55000 nM
melting point: 146 °C

SMILES: CCc1c(C)[nH]c(=O)c(COC(=O)CCl)c1OC1CCCCCC1 [Z33, [4-(cycloheptyloxy)-5-ethyl-6-methyl-2-oxo-1,2-dihydropyridin-3-yl]methyl chloroacetate]
Relative (%) RT activity in vitro (compound added at 10 μM) [1]: 42.0%
EC50 [2, 12]: 1030 nM
SI (selectivity index = CC50/EC50) ([2]; P4 cell line, WT RT): 52
CC50 at 3 days [3]: 54000 nM
melting point: 123 °C

SMILES: CCOC(=O)c1c(OC2CC(C)CC(C)C2)c(CC)c(C)[nH]c1=O (centres unmarked) [Z37, ethyl 4-[(3,5-dimethylcyclohexyl)oxy]-5-ethyl-6-methyl-pyridine-2(1H)-one-3-carboxylate]
Relative (%) RT activity in vitro (compound added at 10 μM) [1]: 8.3%
EC50 [2, 12]: 43 nM
SI (selectivity index = CC50/EC50) ([2]; P4 cell line, WT RT): 1349
CC50 at 3 days [3]: 58000 nM
activity on Cys188 mutant strains compared with the cyclohexyl derivative [4]: more active on Cys188 mutant strains than the cyclohexyl derivative
EC50 ([4]; Human immunodeficiency virus 1, read-out: EC50 Cys188RT): 6 nM
melting point: 108 °C

SMILES: CCc1c(C)[nH]c(=O)c(C(=O)OCCN(CC)CC)c1OC1CC(C)CC(C)C1 (centres unmarked) [Z53]
Relative (%) RT activity in vitro (compound added at 10 μM) [1]: 34.3%

SMILES: CCOC(=O)c1c(OC2CCCCCCC2)c(CC)c(C)[nH]c1=O [Z54]
Relative (%) RT activity in vitro (compound added at 10 μM) [1]: 24%
EC50 [2, 9]: 1350 nM
CC50 (P4 cells): 58000 nM

SMILES: CCOC(=O)c1c(OC2CCC(CC)CC2)c(CC)c(C)[nH]c1=O (centres unmarked) [Z55]
Relative (%) RT activity in vitro (compound added at 10 μM) [1]: 40.3%

SMILES: CCc1c(C)[nH]c(=O)c(N)c1OC1CC(C)CC(C)C1 (centres unmarked) [Z96inv]
Relative (%) RT activity in vitro (compound added at 10 μM) [1]: 25.4%

SMILES: CCc1c(C)[nH]c(=O)c(CC)c1OC1CC(C)CC(C)C1 (centres unmarked) [Z167]
EC50 [5]: < 1 nM
EC50 [6]: < 1 nM
EC50 [7]: 7 nM
EC50 [8]: 129 nM

EC50 [2, 10]: 1910 nM
SMILES: CCOC(=O)c1c(OC2CCCC2)c(CC)c(C)[nH]c1=O [reference compound]

SMILES: CCOC(=O)c1c(OC2CCCCC2)c(CC)c(C)[nH]c1=O [reference compound]
EC50 [2, 10]: 770 nM
EC50 [4, 11]: 6500 nM
